The text below walks through data of PubChem BioAssay (NCI).

Several values for one entry are separate records, joined by “and”; a condition that tells them apart may be missing. Equal values may be shown once.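 Each compound was tested at five concentrations against cells in 96-well plates for 48 hours. GI50 marks 50% less growth. TGI: total growth inhibition.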 Bounds are passed on as bounds.

Assay in all cases: NCI tumour cell line growth inhibition, 48 h
Assay [1] concerns NCI/ADR-RES ovarian.
Assay [2] concerns NCI-H226 lung.
The subject of assay [3] is IGROV1 ovarian.
Assay [4] deals with NCI-H460 lung.
Assay [5] concerns SK-MEL-2 melanoma.
Assay [6] concerns KM12 colon.
Assay [7] deals with HS 578T breast.
The test system of assay [8] is SK-MEL-28 melanoma.
Assay [9] relates to A549 NSCLC.
The subject of assay [10] is MDA-MB-231 breast.

For the compound `OCC1OC(n2cnc3cc(Cl)c(Cl)cc32)C(O)C1O` (stereo not given), the GI50 was 18800 nM in [1]; 8320 nM in assay [2]; 12500 nM in [3]; 30000 nM in assay [4]; 14300 nM in assay [5]; 28300 nM in assay [6]. The GI50 in assay [7] is 27000 nM; in assay [8] it was 29300 nM; in assay [9], 18800 nM; in assay [10] it was 21200 nM. Also, the TGI in [1] was 56600 nM; in assay [2], 35300 nM; in assay [3], 34400 nM; in assay [4], above 100000 nM; in [5], 35900 nM; in assay [6], above 100000 nM. Further, the TGI is above 96300 nM in [7], above 100000 nM in [8], above 72400 nM in assay [9] and 60100 nM in assay [10].

With `Cc1ccc(O)c(C(=O)/C=C/c2ccccc2)c1`, the TGI in assay [1], in [2], in [3], in assay [4], in assay [5] and in [6] was above 100000 nM each time. In addition, the TGI in assay [7], in assay [8], in assay [9] and in assay [10] was above 100000 nM in each case.

As to `C=C1CC2(CC(c3ccccc3C)OC(c3ccccc3C)C2)OC1=O` (stereo not given), the TGI in assay [1] came to 14300 nM; in assay [2] it was 18700 nM; in [3] it was 3250 nM; in [4], 14200 nM; in assay [5], 4130 nM; in [6], 6060 nM. For the same compound, the TGI worked out at 5430 nM in [7], 4270 nM in assay [8], 19400 nM in [9] and 3170 nM in assay [10].

Take `CN1c2cccc[c]2[Sn]([CH3])([CH3])[c]2ccccc21`: the GI50 in assay [1] is 13.2 nM; in assay [2], below 13.8 nM; in assay [3], below 16.6 nM; in assay [4] it was below 10 nM; in [5], below 20.9 nM; in [6], below 10 nM. Further, the GI50 in [7] is 16.6 nM; in assay [8], 113 nM; in assay [9] it was below 13.2 nM; in assay [10], below 13.2 nM. Also, the TGI in [1] was 49.1 nM; in [2], 132 nM; in assay [3] it was 140 nM; in assay [4], 12.6 nM; in [5] it was 180 nM; in [6], below 16.9 nM. Moreover, the TGI is 683 nM in assay [7], 303 nM in [8], 93.2 nM in assay [9] and 165 nM in assay [10].

For the compound `O=C1NC(=O)/C(=C/c2ccc3nccc(-c4ccncc4)c3c2)S1`, the GI50 is 885 nM in [1]; 239 nM in [2]; 117 nM in [3]; 487 nM in assay [4]; 438 nM in [5]; 817 nM in assay [6]. For the same compound, the GI50 in assay [7] was 119 nM; in assay [8] it was 237 nM; in assay [9], 610 nM; in assay [10], 387 nM. The TGI is above 10000 nM in [1]; 2760 nM in assay [2]; 612 nM in [3]; above 10000 nM in [4]; 2250 nM in assay [5]; above 10000 nM in assay [6]. Besides, the TGI in [7] was determined as 540 nM; in [8], 2290 nM; in assay [9], 5240 nM; in assay [10], 3920 nM.

For `c1ccc(OCC[P+](c2ccccc2)(c2ccccc2)c2ccccc2)cc1`, the GI50 in assay [1] is above 66100 nM; in assay [2] it was 2030 nM; in [3], 905 nM; in [4] it was 1350 nM; in [5], 1060 nM; in assay [6], 1310 nM. For the same compound, the GI50 in assay [7] was 2270 nM; in assay [8], 1240 nM; in assay [9] it was 2960 nM; in assay [10], 2440 nM. Besides, the TGI in [1] is above 100000 nM; in [2], 12100 nM; in [3], 11800 nM; in [4], 10400 nM; in [5] it was 10800 nM; in assay [6], 8840 nM. For the same compound, the TGI in assay [7] was determined as 16500 nM; in [8] it was 9810 nM; in [9], 82500 nM; in assay [10], 23900 nM.

For `Cc1cc(C(=O)NOCCO)c(Nc2ccc(I)cc2F)n(C)c1=O`, the GI50 was above 90600 nM in [1]; > 10000 nM and 5830 nM in [2]; 9.09 nM and 17.8 nM in assay [3]; > 10000 nM and 46700 nM in [4]; 2.99 nM and < 10 nM in assay [5]; 26.3 nM and < 16.1 nM in assay [6]. The GI50 in [7] is > 10000 nM and 37200 nM; in assay [8], 2.27 nM and < 10 nM; in assay [10] it was 7.5 nM and < 10 nM. The TGI in assay [1], in assay [2], in [3], in [4], in assay [6] and in assay [7] was above 100000 nM in each case. For the same compound, the TGI in [9] and in assay [10] was above 100000 nM each time.

Consider `O=C(Nc1ccc([N+](=O)[O-])cc1Cl)c1cc(Cl)ccc1O`, for which the GI50 in assay [1] was 137 nM and 231 nM; in assay [2] it was 155 nM and 334 nM; in assay [3], 229 nM and 294 nM; in [4], 134 nM and 213 nM; in assay [5], 111 nM and 167 nM; in [6], 169 nM and 303 nM. The GI50 is 133 nM and 207 nM in assay [7]; 165 nM and 243 nM in [8]; 163 nM and 327 nM in assay [9]; 110 nM and 162 nM in assay [10]. Moreover, the TGI in assay [1] was 536 nM and 1350 nM; in assay [3], 18700 nM and 8490 nM; in [4], 5980 nM; in assay [5], 268 nM and 443 nM; in assay [6] it was 608 nM and 1200 nM; in assay [8], 2030 nM and 2010 nM. The TGI in assay [9] was 23400 nM and > 100000 nM; in [10], 461 nM and 593 nM.
